Experimental findings from ChEMBL document CHEMBL1165918, “Synthesis and biological activity of N-aroyl-tetrahydro-gamma-carbolines” (Bioorg Med Chem, 2010) are described below.

For experiment [1], the target named is T1, Prostaglandin G/H synthase 1 (Homo sapiens, UniProt P23219). The experiment in a line: Inhibition of COX1 in human whole blood assessed as inhibition of 12-hydroxyheptadecatrienoic acid production at 10 uM by HPLC method. The format is tissue-based.
In experiment [2] the test system is L1210. Put plainly: Growth inhibition of mouse L1210 cells at 10 uM after 72 hrs by MTT assay. It is filed as functional. To be noted: L1210, 72 h, read-out: GI.
The target of experiment [3] is T2, Polyunsaturated fatty acid 5-lipoxygenase (Homo sapiens, UniProt P09917).
T2 sequence (P09917 whole entry): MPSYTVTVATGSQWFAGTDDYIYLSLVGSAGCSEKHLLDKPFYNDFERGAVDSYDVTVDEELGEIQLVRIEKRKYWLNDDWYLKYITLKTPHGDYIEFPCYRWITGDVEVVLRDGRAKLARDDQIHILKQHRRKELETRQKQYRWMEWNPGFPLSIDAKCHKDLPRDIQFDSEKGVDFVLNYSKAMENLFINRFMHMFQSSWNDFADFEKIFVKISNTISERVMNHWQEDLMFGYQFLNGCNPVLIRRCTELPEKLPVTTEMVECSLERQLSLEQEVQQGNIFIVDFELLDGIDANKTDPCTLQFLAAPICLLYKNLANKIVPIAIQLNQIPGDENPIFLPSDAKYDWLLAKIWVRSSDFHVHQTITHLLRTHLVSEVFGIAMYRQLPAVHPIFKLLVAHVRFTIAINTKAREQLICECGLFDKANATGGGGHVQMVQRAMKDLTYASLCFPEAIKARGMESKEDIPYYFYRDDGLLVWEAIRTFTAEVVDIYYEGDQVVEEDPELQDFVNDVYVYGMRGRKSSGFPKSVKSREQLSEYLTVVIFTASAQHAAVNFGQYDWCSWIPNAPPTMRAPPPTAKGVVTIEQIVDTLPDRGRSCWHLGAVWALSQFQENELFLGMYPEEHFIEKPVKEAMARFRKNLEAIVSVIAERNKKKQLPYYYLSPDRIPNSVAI

Experiment [4] concerns PC-3. The experiment in a line: Growth inhibition of human PC3 cells at 10 uM after 72 hrs by MTT assay. It is filed as functional. To be noted: PC-3, 72 h, read-out: GI.
Experiment [5] has as its target T2, Polyunsaturated fatty acid 5-lipoxygenase. This is another data set of the same source.
Experiment [6] has as its system MCF7. The experiment in a line: Growth inhibition of human MCF7 cells at 10 uM after 72 hrs by MTT assay. It is filed as functional. As to conditions: MCF7, 72 h, read-out: GI.
Experiment [7] has as its system L1210. Put plainly: Cytotoxicity against mouse L1210 cells after 72 hrs by MTT assay. It is filed as functional, cell-based. To be noted: L1210, 72 h.
For experiment [8], the system named is MCF7. Put plainly: cells. To be noted: Homo sapiens, MCF7, 72 h.
Description: Cytotoxicity against human MCF7 cells after 72 hrs by MTT assay
Experiment [9] addresses T1, Prostaglandin G/H synthase 1. The format is tissue-based, Blood.
Description: Inhibition of COX1 in human whole blood assessed as inhibition of 12-hydroxyheptadecatrienoic acid production by HPLC method
Experiment [10] has the same target. The experiment in a line: Inhibition of COX1 in human whole blood. It is filed as tissue-based.
Experiment [11] deals with T2, Polyunsaturated fatty acid 5-lipoxygenase. The experiment in a line: Inhibition of 5-lipoxygenase in human whole blood. The format is tissue-based.
In experiment [12] the test system is PC-3. Put plainly: cells. As to conditions: Homo sapiens, PC-3, 72 h.
Description: Cytotoxicity against human PC3 cells after 72 hrs by MTT assay
Experiment [13] is filed under the species Homo sapiens. The experiment in a line: Selectivity ratio of IC50 for COX2 in human whole blood to IC50 for COX1 in human whole blood. It is filed as tissue-based.
Experiment [14] concerns the target T3, Polyunsaturated fatty acid 5-lipoxygenase (Homo sapiens) (UniProt P09917).
T3 sequence (whole entry): T2 sequence (P09917 whole entry)
The format is tissue-based. To be noted: Blood, 10 uM.

Experiment [15] addresses T4, Prostaglandin G/H synthase 2 (Homo sapiens) (UniProt P35354).
T4 sequence (whole entry): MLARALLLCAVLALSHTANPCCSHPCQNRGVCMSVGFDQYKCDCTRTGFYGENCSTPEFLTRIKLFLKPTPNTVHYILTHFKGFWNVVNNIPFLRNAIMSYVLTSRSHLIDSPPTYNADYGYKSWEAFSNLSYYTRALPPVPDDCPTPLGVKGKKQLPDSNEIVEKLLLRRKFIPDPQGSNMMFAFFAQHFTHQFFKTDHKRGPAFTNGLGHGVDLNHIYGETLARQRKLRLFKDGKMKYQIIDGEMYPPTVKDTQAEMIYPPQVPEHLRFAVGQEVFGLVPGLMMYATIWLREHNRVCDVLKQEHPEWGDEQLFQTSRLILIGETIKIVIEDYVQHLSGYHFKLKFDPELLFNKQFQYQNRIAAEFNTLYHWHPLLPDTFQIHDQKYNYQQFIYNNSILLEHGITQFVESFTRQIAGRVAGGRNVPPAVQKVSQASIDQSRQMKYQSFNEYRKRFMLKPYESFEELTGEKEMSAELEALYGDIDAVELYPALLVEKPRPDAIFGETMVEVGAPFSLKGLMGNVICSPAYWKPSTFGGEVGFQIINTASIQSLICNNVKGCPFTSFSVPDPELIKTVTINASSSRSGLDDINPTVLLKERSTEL
Put plainly: Inhibition of COX2 in human whole blood assessed as inhibition of 12-hydroxyheptadecatrienoic acid production at 10 uM by HPLC method. It is filed as tissue-based.

T1 sequence (P23219 whole entry): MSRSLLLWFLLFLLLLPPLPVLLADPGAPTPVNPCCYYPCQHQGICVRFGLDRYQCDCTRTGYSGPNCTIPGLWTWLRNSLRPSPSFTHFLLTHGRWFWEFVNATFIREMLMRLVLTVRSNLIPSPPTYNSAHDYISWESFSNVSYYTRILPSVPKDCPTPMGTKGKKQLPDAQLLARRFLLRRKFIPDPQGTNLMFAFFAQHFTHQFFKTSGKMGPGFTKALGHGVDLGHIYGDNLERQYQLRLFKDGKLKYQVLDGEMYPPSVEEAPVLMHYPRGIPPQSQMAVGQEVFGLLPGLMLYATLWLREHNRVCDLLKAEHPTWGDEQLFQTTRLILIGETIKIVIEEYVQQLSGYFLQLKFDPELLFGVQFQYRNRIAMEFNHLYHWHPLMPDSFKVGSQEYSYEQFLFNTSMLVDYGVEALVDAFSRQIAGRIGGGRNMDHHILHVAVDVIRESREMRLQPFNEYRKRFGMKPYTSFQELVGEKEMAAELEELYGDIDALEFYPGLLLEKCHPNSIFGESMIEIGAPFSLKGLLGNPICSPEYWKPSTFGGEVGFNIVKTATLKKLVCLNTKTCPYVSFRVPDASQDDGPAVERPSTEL

For `COc1ccc2c(c1)c1c(n2C(=O)c2ccccc2F)CCN(CCCOc2cc(F)cc(C3(OC)CCOCC3)c2)C1`, the inhibition in experiment [1] was 83.5%. The inhibition of growth at 10 µM in [2] was 45%; in [4] it was 15%; in [6], 21%. Also, the results for the IC50 in [3] and in [5] were 39.3 µM and over 10 µM, respectively.
With `Cc1ccc(-c2cc(C(F)(F)F)nn2-c2ccc(S(N)(=O)=O)cc2)cc1` [CELECOXIB], the IC50 in experiment [7] came out at 44 µM; in experiment [8] it was 50.2 µM.
`CS(=O)(=O)c1ccc2c(c1)c1c(n2C(=O)c2ccccc2)CCNC1` showed an IC50 in [9] of 24.4 µM. Besides, the inhibition of growth at 10 µM in [2] turned out to be 0%; in experiment [4], 7%; in [6] it was 0%.
As to `COc1ccc2c(c1)c1c(n2C(=O)c2ccc(Br)cc2)CCN(CCCOc2cc(F)cc(C3(OC)CCOCC3)c2)C1`, the IC50 in experiment [9] came out at 16.5 µM; in experiment [3] it was 47.4 µM; in [5], 62 µM. Also, the values for the inhibition of growth at 10 µM in experiment [2], in experiment [4] and in experiment [6] were 42%, 0% and 39%, respectively.
For the compound `COC1(c2cc(F)cc(OCc3cc(-c4ccccc4)n(-c4ccc(S(C)(=O)=O)cc4)n3)c2)CCOCC1`, the IC50 is over 10 µM in experiment [10] and 200 nM in [11].
`COC1(c2cc(F)cc(OCCCN3CCc4c(c5cc(S(C)(=O)=O)ccc5n4CCCOc4cc(F)cc(C5(OC)CCOCC5)c4)C3)c2)CCOCC1` had an IC50 in [7] of 3 µM. For the same compound, the inhibition of growth at 10 µM in experiment [6] was determined as 36%.
Regarding `COc1ccc2c(c1)c1c(n2C(=O)c2ccc(F)cc2)CCN(CCCOc2cc(F)cc(C3(OC)CCOCC3)c2)C1`, the inhibition in experiment [1] was 71.6%. Also, the inhibition of growth at 10 µM stood at 44% in [2], 0% in experiment [4] and 37% in experiment [6]. For the same compound, the IC50 in [3] is 58 µM; in experiment [5], 59.9 µM.
On to `COC1(c2cc(F)cc(OCCCN3CCc4c(c5ccccc5n4C(=O)c4ccccc4)C3)c2)CCOCC1`, for which the IC50 in experiment [9] came to 18.2 µM; in experiment [3] it was 92.9 µM; in experiment [5], 206 µM. The figures for the inhibition of growth at 10 µM in experiment [2], in experiment [4] and in experiment [6] were 24%, 6% and 30%, respectively.
Turning to `COc1ccc2c(c1)c1c(n2C(=O)c2ccccc2)CCN(CCCOc2cc(F)cc(C3(OC)CCOCC3)c2)C1`, the inhibition in experiment [1] stood at 84.3%. For the same compound, the inhibition of growth at 10 µM in experiment [2] was 20%; in [4] it was 20%; in [6], 18%. For the same compound, the IC50 in [3] came out at 66.4 µM; in experiment [5], 108 µM.
For `COc1ccc2c(c1)c1c(n2C(=O)c2ccc(Cl)cc2)CCN(CCCOc2cc(F)cc(C3(OC)CCOCC3)c2)C1`, the IC50 in [9] is 7.4 µM; in experiment [3], 59.3 µM; in experiment [7], 8 µM; in experiment [8], 8 µM; in experiment [5] it was 119 µM. The inhibition of growth at 10 µM in [4] came out at 9%.
Regarding `COC1(c2cc(F)cc(OCCCN3CCc4c(c5cc(F)ccc5n4Cc4ccc(S(C)(=O)=O)cc4)C3)c2)CCOCC1`, the IC50 in experiment [9] was found to be 180 µM; in [3], 29.5 µM; in experiment [12], 8 µM; in [5] it was 24.6 µM. In addition, the inhibition of growth at 10 µM in experiment [2] was 38%; in [6] it was 34%.
In the case of `COC(=O)c1cc2cc(S(C)(=O)=O)ccc2n1Cc1ccc(Cl)cc1`, the Ratio IC50 in experiment [13] is under 0.05. Besides, the half-inhibitory concentration (IC50) in experiment [10] is over 10 µM.
`COc1ccc2c(c1)c1c(n2Cc2ccc(S(C)(=O)=O)cc2)CCN(CCCOc2cc(F)cc(C3(OC)CCOCC3)c2)C1`: the values for the IC50 in [7] and in [12] were 5 µM and 8 µM, respectively. For the same compound, the inhibition of growth at 10 µM in experiment [6] was 27%.
Turning to `COc1ccc2c(c1)c1c(n2C(=O)c2ccc(S(=O)(=O)/N=C/N(C)C)cc2)CCN(CCCOc2cc(F)cc(C3(OC)CCOCC3)c2)C1`, the inhibition in experiment [14] was found to be 81.4%. In addition, the results for the IC50 in experiment [7] and in experiment [5] were 6 µM and over 10 µM, respectively. Besides, the inhibition of growth at 10 µM in experiment [4] was found to be 42%; in [6], 21%.
In experiment [9], `COC1(c2cc(F)cc(OCCCN3CCc4c(c5cc(S(C)(=O)=O)ccc5n4C(=O)c4ccccc4)C3)c2)CCOCC1` returned an IC50 of 24 µM. Also, the values for the inhibition of growth at 10 µM in experiment [2], in [4] and in experiment [6] were 38%, 37% and 15%, respectively. The inhibition in experiment [15] stood at 8.4%.
Regarding `COc1ccc2c(c1)c1c(n2C(=O)c2c(Cl)cc(Cl)cc2Cl)CCN(CCCOc2cc(F)cc(C3(OC)CCOCC3)c2)C1`, the IC50 in [9] was determined as 36.7 µM; in experiment [3], 45.4 µM; in experiment [5], 55 µM. Besides, the inhibition of growth at 10 µM was determined as 11% in experiment [2], 0% in experiment [4] and 36% in experiment [6].
For the compound `COc1ccc2c(c1)c1c(n2C(=O)c2ccccc2)CCNC1`, the IC50 in experiment [9] worked out at 6 µM. Besides, the inhibition of growth at 10 µM in experiment [2] was found to be 32%; in experiment [4], 0%; in experiment [6], 0%.
In the case of `COc1ccc2c(c1)c1c(n2C(=O)c2cccc(F)c2)CCN(CCCOc2cc(F)cc(C3(OC)CCOCC3)c2)C1`, the values for the IC50 in [9], in [3] and in [5] were 7.8 µM, 38 µM and 40.5 µM, respectively. Further, the inhibition of growth at 10 µM in experiment [2] is 40%; in experiment [4], 44%; in [6] it was 8%.
